Experimental data reported in publication PMC12567141, “Design, Synthesis and Biological Evaluation of Pyrazolopyrimidine Derivatives as Aryl Hydrocarbon Receptor Antagonists for Colorectal Cancer Immunotherapy” (Pharmaceutics, 2025).

Assays:
[1] = test system: CD8+ IFNγ + T lymphocytes; assay: Flow cytometry of CD8+ IFNγ+ T lymphocytes in splenocytes of tumour-bearing mice; format: in vivo; details: vs vehicle or single therapy
Protocol: For analysis of CD8+ IFNγ + T lymphocytes, splenocytes were collected from tumour-bearing mice and stimulated with a cell activation cocktail (BioLegend, San Diego, CA, USA) in the presence of Brefeldin A for 6 h. Splenocytes were stained with APC-conjugated CD8 and APC-Cy7-conjugated IFNγ Ab at 4 °C for 30 min (BioLegend). After washing with FACS buffer (Biolegend) three times, the cells were analysed using Becton Dickinson LSRFortessa^TM and analyzed with FlowJo software. Isotype-matched monoclonal antibodies were used as controls. The data were analysed using Flowjo analysis software v11. (Flowjo LLC, Ashland, OR, USA).

MC38 and CT26 cells = assay: Cell-cycle analysis by flow cytometry; format: cell-based; details: 24 h treatment
Protocol: Washed and fixed cells were stained in the dark with 0.5 mL propidium iodide/RNase staining buffer for 15 min at room temperature. DNA content, cell-cycle profiles, and forward scatter were analyzed using a Becton Dickinson LSRFortessa^TM (BD Diagnostics, San Jose, CA, USA) with emission detection at 488 nm (excitation) and 575 nm (peak emission). Data were analyzed using FlowJo (BD biosciences, San Jose, CA. USA).

CT26 tumor = assay: In vivo therapy, CT26 syngeneic model; set-up: species or system mice
Protocol: (§1) In vivo experiments were conducted using 6-week-old male immunocompetent BALB/c and C57BL/6 with 18–20 g body weight (Orient Bio Inc., Seungnam, Republic of Korea). All animal experimental procedures were maintained and used in accordance with the Guidelines for the Care and Use of Laboratory Animals of the Institute of Laboratory Animal Center, Daegu-Gyeongbuk Medical Innovation Foundation (K-MEDI hub). The animal studies were conducted after approval by the institutional reviewer board on the Ethics of Animal Experiments of the Daegu-Gyeongbuk Medical Innovation Foundation (approval number: KMEDI-24041103-01).
Study 1: Antitumor activity of 7k alone in mice with either CT26 syngeneic model or MC38 syngeneic model. Mice were subcutaneously challenged with 5 × 10^5 either MC38 or CT26 cells. When tumor formation was detected via inspection and palpation, 7k treatment was initiated once a day for 14 days by oral gavage.
Study 2: Antitumor activity of combination with anti-PD1 and 7k in CT26 tumor bearing mice. Mice were subcutaneously challenged with 5 × 10^5 CT26 cells. Tumor bearing mice were divided into four groups as following; Group 1: vehicle, Group 2: 10 mg/kg anti-PD1, Group 3: 10 mg/kg 7k, and Group 4: 10 mg/kg anti-PD1 + 10 mg/kg 7k. 7k was administered by oral gavage once daily. Anti-PD1 antibody (clone RPM1-14, Bio X cell, Lebanon, NH, USA) was injected intraperitoneally every 3 days for 4 doses.
(§2) The 7k was dissolved in solution including 5% DMSO, 55% DW, and 40% PEG. Tumor size was measured with a caliper at the indicated time points, and tumor volume (mm^3) was calculated using the following formula, tumor volume (mm^3) = d2 × D/2, where d and D are the shortest and longest diameters in mm, respectively.

MC38 tumor = assay: In vivo therapy, MC38 syngeneic model; set-up: species or system mice
Protocol: as §1
Study 1: Antitumor activity of 7k alone in mice with either CT26 syngeneic model or MC38 syngeneic model. Mice were subcutaneously challenged with 5 × 10^5 either MC38 or CT26 cells. […]
as §2

[2] = test system: AhR nuclear translocation in MC38 cells; assay: Kynurenine-induced AhR nuclear translocation (Western blot); format: cell-based; details: kynurenine-treated MC38 cells, 24 h
Protocol: Cells were harvested and washed twice in cold PBS. Cytoplasmic and nuclear protein were isolated by NE-PER^TM (Thermo Fisher Scientific, Waltham, MA, USA). The procedure was completed according to the kit instructions.
For the extraction of total protein, cells were treated with 7k for 24 h in a CO2 incubator at 37 °C and washed twice with phosphate-buffered saline (PBS). Cell pellets were lysed using radioimmunoprecipitation assay (RIPA) buffer (Thermo Fisher Scientific) containing a protease and phosphatase inhibitor cocktail kit (Thermo Fisher Scientific). The lysed cells were briefly vortexed at intervals and subsequently centrifuged at 13,000× g at 4 °C. The protein sample was quantified with the bicinchoninic acid (BCA) protein assay kit (Thermo Fisher Scientific).
Equal amounts of proteins were loaded onto 10% sodium dodecyl sulfate polyacrylamide gel electrophoresis and transferred onto PVDF membranes (Millipore, Billerica, MA, USA). The membrane was blocked with 5% skim milk in Tris-buffered saline (TBS) containing Tween-20 (TBS-T) for an hour and probed with the respective primary antibodies in 5% BSA overnight at 4 °C. Following incubation, the membrane was probed with horseradish peroxidase (HRP)-conjugated secondary antibodies for an hour at room temperature. […]

colorectal cancer cells = assay: Cell viability assay (CCK-8), colorectal cancer cells; format: cell-based; details: 24 h
Protocol: Chinese hamster ovary CHO cells, mouse fibroblast L929 cells, normal colon CCD18-Co cells, monkey kidney fibroblast COS-7 cells, colorectal cancer cells including HCT-116, RKO, SW480, SW620, CT26, and MC38 cells were purchased from ATCC (American Type Culture Collection). CHO, L929, Cos-7, and all cancer cells were maintained in RPMI 1640 or DMEM supplemented with 10% FBS (Gibco FBS; Thermo Fisher Scientific, Hanover Park, IL, USA) and 1% streptomycin/penicillin. CCD18-Co cells were cultured in high-glucose Dulbecco modified Eagle medium containing 10% FBS and 1% streptomycin/penicillin. All cells were grown in 5% CO2 at 37 °C. Mycoplasma testing was regularly performed every month using the BioMycoX Mycoplasma PCR Detection Kit (CellSafe, Yongin, Republic of Korea).
Cell viability was analyzed using a Cell Counting Kit-8 (Dojindo molecular technologies, Rockville, MD, USA). Cells were seeded in 96-well plates and treated with different concentrations of 7k. At the indicated time points, CCK-8 (10 μL/well) reagents were added to the cells, followed by further incubation at 37 °C for 90 min. The absorbance at 450 nm was measured using a plate reader (BioTek instruments, Winooski, VT, USA).

SMILES: CC(C)n1cc2nc(-c3cc(F)cc(F)c3)nc(NCCc3c[nH]c4ccccc34)c2n1 [Compound 7k, N-(2-(1H-indol-3-yl)ethyl)-5-(3,5-difluorophenyl)-2-isopropyl-2H-pyrazolo [4,3-d]pyrimidin-7-amine]
- levels of CD8+ IFNγ T lymphocytes [1]: increased the levels of CD8+ IFNγ T lymphocytes
- sub-G1 fraction (MC38 and CT26 cells): dose-dependent increase in the sub-G1 fraction
- tumor growth inhibition (TGI) (CT26 tumor; CT26 model, combination study, 7k 10 mg/kg oral daily 14 days, anti-PD1 10 mg/kg i.p. every 3 days x4): 49%
- tumor weight (CT26 tumor; CT26 tumor bearing mice, vs vehicle-treated mice (Figure S4)): significantly lower
- tumor growth inhibition (TGI) (CT26 tumor; CT26 tumor-bearing mice, single agent, 10 mg/kg oral once a day for 14 days): 33%
- tumor growth inhibition (TGI) (MC38 tumor; MC38 model, combination study, 7k oral daily 20 days, anti-PD1 i.p. every three days four times): 45%
- tumor growth inhibition (TGI) (MC38 tumor; MC38 model, comparison of 7k and 3′,4′-dimethoxyflavone, 10 mg/kg oral once a day, 18 days): 51%
- tumor weight (MC38 tumor; MC38 tumor bearing mice, vs vehicle-treated mice (Figure S5)): significantly lower
- tumor growth inhibition (TGI) (MC38 tumor; MC38 tumor-bearing mice, single agent, 10 mg/kg oral once a day for 14 days): 49%
- AhR expression in the nucleus [2]: decreased AhR expression in the nucleus
- cell proliferation / viability of colorectal cancer cells (colorectal cancer cells): dose-dependent decrease in cell proliferation
